From US11965159B2, “Compositions and methods for regulating proteins and nucleic acids activities” (THE BROAD INSTITUTE, INC., priority 2019, dated 2024)

Columns and labels:
[1] = tested on: HEK293T cells; experiment: Cell viability assay (ATP content) of HEK293T cells; assay type: cell-based; conditions: up to 20 μM, 24 h
Procedure: FIG. 23—Cell viability assay (ATP content) of HEK293T cells in the presence of compounds. Measurement of ATP content of HEK293T cells upon incubating with BRD7087 and BRD5779 (5-20 μM) for 24 h. Error bars represent ±S.D. from technical replicates (n=3).
FIG. 67. Cell viability assay (ATP content) of HEK293T cells in the presence of compounds. Measurement of ATP content of HEK293T cells upon incubating with BRD7087 and BRD5779 (5-20 μM) for 24 h. Error bars represent ±S.D. from technical replicates (n=3).

[2] = target: T1, SpCas9:gRNA ribonucleoprotein complex (Streptococcus pyogenes serotype M1, UniProt Q99ZW2); experiment: 19F NMR binding assay; conditions: [Ligand] 50 μM
T1 construct: His6 (N, cleaved yes); made in house; host or cells: E. coli BL21 Star (DE3)
T1 sequence (Q99ZW2 whole entry, one chain of several): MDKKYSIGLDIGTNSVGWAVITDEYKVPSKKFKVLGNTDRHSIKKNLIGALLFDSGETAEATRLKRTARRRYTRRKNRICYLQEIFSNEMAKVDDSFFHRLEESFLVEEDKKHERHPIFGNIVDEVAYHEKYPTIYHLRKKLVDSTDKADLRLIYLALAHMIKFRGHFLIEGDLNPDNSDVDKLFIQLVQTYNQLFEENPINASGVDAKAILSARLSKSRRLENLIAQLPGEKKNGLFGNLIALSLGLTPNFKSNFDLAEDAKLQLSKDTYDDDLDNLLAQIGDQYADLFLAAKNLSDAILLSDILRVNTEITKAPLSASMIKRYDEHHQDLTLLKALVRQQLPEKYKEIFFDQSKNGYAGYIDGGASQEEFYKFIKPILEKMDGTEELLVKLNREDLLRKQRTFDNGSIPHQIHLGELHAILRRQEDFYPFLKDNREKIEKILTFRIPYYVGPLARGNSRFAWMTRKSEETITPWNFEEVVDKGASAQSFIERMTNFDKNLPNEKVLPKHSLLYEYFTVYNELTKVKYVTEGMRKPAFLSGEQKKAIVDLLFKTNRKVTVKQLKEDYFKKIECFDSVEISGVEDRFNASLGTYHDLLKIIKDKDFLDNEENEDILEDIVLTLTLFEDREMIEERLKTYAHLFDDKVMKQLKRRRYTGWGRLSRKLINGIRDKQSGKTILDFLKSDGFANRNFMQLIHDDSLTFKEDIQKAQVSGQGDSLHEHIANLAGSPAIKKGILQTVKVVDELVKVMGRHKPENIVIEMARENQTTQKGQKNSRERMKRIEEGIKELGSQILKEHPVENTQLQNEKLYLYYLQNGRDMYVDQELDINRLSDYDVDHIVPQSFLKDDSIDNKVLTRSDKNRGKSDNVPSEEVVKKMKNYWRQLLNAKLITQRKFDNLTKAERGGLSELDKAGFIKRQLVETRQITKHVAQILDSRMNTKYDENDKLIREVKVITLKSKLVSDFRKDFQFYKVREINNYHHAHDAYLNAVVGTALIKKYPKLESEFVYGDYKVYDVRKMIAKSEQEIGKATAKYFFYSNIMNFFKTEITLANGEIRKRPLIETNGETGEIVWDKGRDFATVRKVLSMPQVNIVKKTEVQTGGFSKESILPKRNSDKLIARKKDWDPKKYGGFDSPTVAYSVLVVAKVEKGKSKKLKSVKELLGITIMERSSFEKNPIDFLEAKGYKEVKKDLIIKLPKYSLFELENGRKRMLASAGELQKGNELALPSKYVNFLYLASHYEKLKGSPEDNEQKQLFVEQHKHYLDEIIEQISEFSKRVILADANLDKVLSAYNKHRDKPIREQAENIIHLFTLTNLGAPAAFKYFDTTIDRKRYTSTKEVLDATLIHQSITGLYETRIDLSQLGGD
Procedure: (§1) NMR binding assay. All samples were prepared with 50 μM BRD7087 in 20 mM Tris buffer (pH=7.4) with varying concentrations of SpCas9:gRNA in a 3 mm NMR tube. Experiments were performed on a 600 MHz (19F: 564.71 MHz) BRUKER Avance™ III NMR spectrometer equipped with a 5 mm QCI-F CryoProbe™ and a SampleJet for automated sample handling. To acquire spectra, a standard one-pulse 19F experiment with WALTZ-16 for proton decoupling during acquisition, a 5 second recycle delay, and 256 scans was used. All spectra were recorded at 280 K. NMR data were apodized with a 1 Hz exponential function prior to Fourier transformation. All spectra were baseline corrected; peak widths and intensities were extracted using the automated line-fitting feature provided with the MNova software package. Determination of the value of Kd was accomplished using least squares fitting to the expression given in Equation 8 in the paper by Shortridge et al.2.
Kd values obtained by NMR rely on the assumption that ligand binding is in fast-exchange, which typically holds true for ligands with Kd in the 0.5 μM to 20 mM range.
as §1, with “(^19F:” for “(19F:”, “^19F” for “19F”, “al.^2.” for “al.2.”

[3] = target: SpCas9 (Streptococcus pyogenes serotype M1, UniProt Q99ZW2); experiment: mKate2 expression (knockdown/disruption) assay; assay type: cell-based; conditions: read-out: inhibition activity in mKate2 disruption assay
Chain of SpCas9 (Q99ZW2 whole entry): as the sequence (Q99ZW2 whole entry, one chain of several) above
Procedure: Where σ1 and σ2 are the standard deviations of DN66 transfected wells and (DN66+DN78) transfected wells respectively. μ1 and μ2 are the mean % GFP− cell population for DN66 transfected wells and (DN66+DN78) transfected wells respectively. mKate2 expression assay. Approximately 8,000 cells/well were plated in a 96-well format 24 h before transiently transfected with 100 ng of either CgRNA (Addgene Plasmid #64955) or T1 gRNA (Addgene Plasmid #62717) plasmids using Lipofectamine™ 2000 (Life Technologies™). Transfected cells were allowed to grow in the indicated amount of compound or DMSO for 24 h. Cells were then fixed using 4% paraformaldehyde and imaged with the HCS NuclearMask™ Blue Stain (Life Technologies™) as the nuclear counter-staining agent. […] Images were analyzed in the MetaXpress® software to determine the % mKate2 positive cells and the % NHEJ was calculated following a reported protocol and plotted using GraphPad Prism 6. The Z′-value was calculated following the formula:
mKate2 expression assay. […] Images were analyzed in the MetaXpress® software to determine the % mKate2 positive cells and the % NHEJ was calculated following a reported protocol and plotted using GraphPad Prism 6. The Z′-value was calculated following the formula: […]

## COc1ccc(-c2ccc3c(c2)[C@H]2[C@H](CCN2Cc2ccncc2)[C@@H](CO)N3)cc1 [BRD5779, ((3aR,4S,9bR)-8-(4-Methoxyphenyl)-1-(pyridin-4-ylmethyl)-2,3,3a,4,5,9b-hexahydro-1H-pyrrolo[3,2-c]quinolin-4-yl)methanol]
[1]
  cellular ATP-levels: did not significantly alter

## OC[C@H]1Nc2ccc(-c3cccc(F)c3)cc2[C@H]2[C@@H]1CCN2Cc1ccncc1 [BRD7087, ((3aR,4S,9bR)-8-(3-Fluorophenyl)-1-(pyridin-4-ylmethyl)-2,3,3a,4,5,9b-hexahydro-1H-pyrrolo[3,2-c]quinolin-4-yl)methanol]
[2]; [Protein:RNA] 0 μM
  LW: 4.1 Hz
  Peak Area: 3151271.718
  Peak Intensity: 572470.95
[2]; [Protein:RNA] 0 μM, 1-Ibound/I0
  Fractional Occupancy: 0
[2]; [Protein:RNA] 0.75 μM
  LW: 4.3 Hz
  Peak Area: 2968891.536
  Peak Intensity: 497630.81
[2]; [Protein:RNA] 1.0 μM
  LW: 4.6 Hz
  Peak Area: 2999269.636
  Peak Intensity: 468481.06
[2]; [Protein:RNA] 1.25 μM
  LW: 5.3 Hz
  Peak Area: 2964107.303
  Peak Intensity: 398322.72
[2]; [Protein:RNA] 1.5 μM
  LW: 5.9 Hz
  Peak Area: 3176044.761
  Peak Intensity: 375769.97
[2]; [Protein:RNA] 1.75 μM
  LW: 6.3 Hz
  Peak Area: 3020022.312
  Peak Intensity: 342640.49
[1]
  cellular ATP-levels: did not significantly alter
[3]
  inhibition at 5 µM: 50%
